# Test results as given in patent US20170065593A1, “Combination” (Novartis AG, priority 2009, published 2017).
# Read-outs that look alike come from different tables or passages of the source.
# Legend:
# 95 cancer cell lines = tested on: 95 cancer cell lines
# Protocol: (Compound A) or mTOR inhibitor (mTORi, Rapamycin) alone or a combination of both agents at a ratio of 1:2 (MEKi:mTORi) and cell proliferation/death was measured after 3 day drug exposure. Briefly, cells were plated in 384-well plates at 500 cells/well in culture media appropriate for each cell type, supplemented with 10% FBS and 1% penicillin/streptomycin, and incubated overnight at 37° C., 5% CO2. […] (two fold dilutions ranging from 7.3 uM-0.014 nM) or with mTOR inhibitor (two fold dilutions ranging from 14.6 uM-0.112 nM) or in combination with both compounds and incubated for 72 hours. Cell growth was measured using the CellTiterGlo (CTG) reagent (Promega) according to the manufacturer's protocol. Data were analyzed using the XLfit (IDBS Ltd.) curve-fitting tool for Microsoft Excel. Growth IC50 (gIC50) and Ymin values were generated using a four-parameter curve fit algorithm (XLFit algorithm #205).
# Results were expressed as a percent of the t=0 and plotted against the compound concentration. The T=0 value is normalized to 100% and represents the number of cells at the time of compound addition. […] Formula below was used to calculate mutually exclusive combination index (CI). Data were reported as log CI, where the logarithm value of CI was calculated.
# CI=IC50 of a+b/IC50 of a+IC50 of b+a/IC50 of b
# Synergy is defined as CI<1, additivity as CI=1 and antagonism as CI>1. Considering the variability of these proliferation assays we arbitrarily defined log CI>0.1 as antagonism, between −0.1 and 0.1 as no significant effect and <−0.1 as synergy.
# [1] = tested on: A549 lung cancer cell line; test: Assay 2: cell growth (CellTiterGlo, 72 hours), Ymin; type: cell-based; details: percent of T=0 (T=0 = 100%)
# Protocol: FIG. 5 depicts the effect of MEK inhibitor, mTOR inhibitor and their combination on A549 lung cancer cell line growth. […] Cells were treated with MEK inhibitor (two fold dilutions ranging from 7.3 uM-0.014 nM) or with mTOR inhibitor (two fold dilutions ranging from 14.6 uM-0.112 nM) or in combination with both compounds and incubated for 72 hours. Cell growth was measured using the CellTiterGlo (CTG) reagent (Promega) according to the manufacturer's protocol. Data were analyzed using the XLfit (IDBS Ltd.) curve-fitting tool for Microsoft Excel. Growth IC50 (gIC50) and Ymin values were generated using a four-parameter curve fit algorithm (XLFit algorithm #205). Results were expressed as a percent of the t=0 and plotted against the compound concentration. […] Formula below was used to calculate mutually exclusive combination index (CI). Data were reported as log CI, where the logarithm value of CI was calculated. […] Similar analysis was performed for all cell lines and Ymin results are depicted in FIG. 6.
smiles,measurement,setting,value
CO[C@H]1C[C@@H]2CC[C@@H](C)[C@@](O)(O2)C(=O)C(=O)N2CCCC[C@H]2C(=O)O[C@H]([C@H](C)C[C@@H]2CC[C@@H](O)[C@H](OC)C2)CC(=O)[C@H](C)/C=C(\C)[C@@H](O)[C@@H](OC)C(=O)[C@H](C)C[C@H](C)/C=C/C=C/C=C/1C [Rapamycin],% of cells with cytotoxic response,95 cancer cell lines; KRAS WT / PI3K WT cell lines,10%
same,% of cells with cytotoxic response,95 cancer cell lines; KRAS WT / PI3K mutant cell lines,5%
same,% of cells with cytotoxic response,95 cancer cell lines; KRAS WT cell lines,10%
same,% of cells with cytotoxic response,95 cancer cell lines; KRAS mutant / PI3K WT cell lines,11%
same,% of cells with cytotoxic response,95 cancer cell lines; KRAS mutant / PI3K mutant cell lines,6%
same,% of cells with cytotoxic response,95 cancer cell lines; KRAS mutant cell lines,8%
same,% of cells with cytotoxic response,95 cancer cell lines; PI3K WT cell lines,8%
same,% of cells with cytotoxic response,95 cancer cell lines; PI3K mutant cell lines,12%
same,percentage of cell undergoing death (cytotoxic),"95 cancer cell lines; all cell lines, Ymin below T=0",9.5%
same,cell lines undergoing death,"95 cancer cell lines; single agent, across KRAS and PI3K mutational subgroups",≤ 11%
same,Ymin (lower Y value at any compound concentration),[1],487%
